Series [1] can be described thus: Human Feces Stability Assay. Format: in vitro ADME. The note with it: 100 uM in human feces supernatant (3 donors), pH 6.5, 37° C. The method, then:
The human feces stability assay ca be used to measure the stability of FimH antagonists in an environment that mimics the gut. Fresh human feces samples from 3 donors are homogenized with 10 volumes (w/v) of 100 mM potassium phosphate buffer (pH 6.5) using a Stomacher device. The feces mixture is then centrifuged 5 min at 2000 g and supernatant is collected for incubations. Compounds to be tested are spiked at 100 uM in feces supernatant and incubated at 37° C. up to 24 hours. The enzymatic reaction is stopped by adding 9 volumes of acetonitrile containing 0.1% formic acid and internal standard. The mixture is centrifuged and the supernatants are analysed by HPLC-MS/MS to assess percentage of parent remaining relative to a control sample.

The nature of series [2]: Mouse Excretion Study Following FimH Antagonist Oral Dosing. The class given is in vivo. The settings on record: 10 mg/kg orally, collection up to 72 h. The method, then:
Mice are dosed 10 mg/kg orally (10 mL/kg; 0.5% methocel) with FimH antagonists and urine and feces are collected on ice up to 72 h in excretion cages. Post-collection, feces samples are diluted with 10 volumes of water and homogenized using a Stomacher device. Feces mixture and urine samples are then quenched with acetonitrile containing an internal standard, centrifuged, and the supernatants are then diluted with 1 volume of water prior to analysis by HPLC-MS/MS in SRM mode.

Series [3] is described as follows: Mouse Feces Stability Assay. Format: in vitro ADME. The settings on record: 100 uM in mouse feces supernatant, pH 6.5, 37° C. The method, then:
The mouse feces stability assay can be used to measure the stability of FimH antagonists in an environment that mimics the gut. Fresh mouse feces samples from a number of animals (at least 4) are homogenized with 10 volumes (w/v) of 100 mM potassium phosphate buffer (pH 6.5) using a Stomacher device. The feces mixture is then centrifuged 5 min at 2000 g and the supernatant is collected for incubation. Compounds to be tested are spiked at 100 uM in the feces supernatant and incubated at 37° C. up to 6 hours. The enzymatic reaction is stopped by adding 9 volumes of acetonitrile containing 0.1% formic acid and an internal standard. The mixture is centrifuged and the supernatants are analyzed by HPLC-MS/MS to assess percentage of parent remaining relative to a control sample.

The test system of series [4] is bacterial strain LF82 binding to the glycoprotein BSA-(Mannose)3. The series is described as follows: Bacterial Binding Assay (BBA). Format: cell-based, Escherichia coli. The note with it: read-out: Bacterial Binding Assay IC50. An outline of the steps:
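Luciferase-tagged E. coli LF82 grown overnight at 37° C without shaking, then added at 2×10^8 bacteria/mL (10^7 per well) to wells coated with 0.5-2 μg/mL BSA-(Man)3 and blocked with 2% BSA. Compound in 0.2% BSA/D-PBS; binding 40-75 min at room temperature. Washed; bound bacteria read by luciferase luminescence; IC50.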

Series [5] deals with T1, carbohydrate recognition domain of the protein FimH (M1-T179) (Escherichia coli, UniProt P08191).
T1 construct: domain of the protein FimH (M1-T179) with an uncleavable C-terminus 6-His tag; made in house; host or cells: E. coli (pET21b plasmid)
T1 sequence (P08191 22-179 limits assumed): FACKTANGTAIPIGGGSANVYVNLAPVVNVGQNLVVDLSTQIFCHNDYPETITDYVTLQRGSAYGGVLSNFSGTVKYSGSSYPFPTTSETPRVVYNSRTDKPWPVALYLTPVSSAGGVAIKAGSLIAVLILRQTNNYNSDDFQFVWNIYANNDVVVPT
The series is described as follows: Thermal Shift Assay. The class given is binding, E. coli. The settings on record: 5.6 μM protein, 56 μM ligand; DMSO control as reference; ± standard error of the mean (number of repeats). The method, then: The carbohydrate recognition domain of the protein FimH (M1-T179) with an uncleavable C-terminus 6-His tag is cloned in a pET21b plasmid and expressed in E. coli and purified to homogeneity. The thermal stabilization of the protein upon ligand binding is measured in a 96-well format on a ViiA™ 7 (Life Technologies, Carlsbad, Calif.) RT-PCR instrument. The assay is conducted in duplicate in 20 mM Tris pH 7.4 and 150 mM NaCl at a final concentration of 5.6 μM and 56 μM for protein and ligand, respectively. An environmentally-sensitive dye (Applied Biosystems Protein Thermal Shift™ Dye (P/N 4461141)) is added to each well to a final ratio of 1:1000. Plates are spun at 1000×g for 1 minute and incubated at room temperature for 10 minutes. Thermal stability of protein with and without ligand is measured from 45° C. to 85° C. at a scan rate of 0.05° C./sec. The resulting data is analyzed using Protein Thermal Shift™ Software (version 1.1) with DMSO control used as reference.

SMILES strings stand for the structures.

As for `CNC(=O)c1cccc(-c2ccc(O[C@H]3O[C@H](CO)[C@@H](O)[C@H](O)[C@@H]3O)c(C)c2)c1` [A], the “In vitro human feces stability - % Parent remaining at 24 h” value in series [1] came out at 35%. Also, in series [2], the “% Oral dose recovered intact in mice feces” value was 8.4% and the “% Oral dose recovered intact in mice urine” value amounted to 0.20%. Moreover, the “In vitro mice feces stability - % Parent remaining at 6 h” value in series [3] is 0%.
Usually IC50 stands for the concentration that inhibits the measured activity by half. With `Cc1cc(-c2cccc([N+](=O)[O-])c2)ccc1O[C@H]1O[C@H](CO)[C@@H](O)[C@H](O)[C@@H]1F` [Example 2, (2R,3S,4S,5S,6R)-5-fluoro-2-(hydroxymethyl)-6-((3-methyl-3′-nitro-[1,1′-biphenyl]-4-yl)oxy)tetrahydro-2H-pyran-3,4-diol], the IC50 in series [4] was 1150 ± 350 nM. Besides, the “Delta Thermal melt” value in series [5] is listed as 6.01 (1) ° C.
`CNC(=O)c1cccc(-c2ccc(O[C@H]3O[C@H](CO)[C@@H](O)[C@H](O)[C@@H]3F)c(C(F)(F)F)c2)c1` [Example 4, 3-[4-[(2R,3S,4S,5S,6R)-3-fluoro-4,5-dihydroxy-6-(hydroxymethyl)tetrahydropyran-2-yl]oxy-3-(trifluoromethyl)phenyl]-N-methyl-benzamide]: the IC50 in series [4] was found to be 470 ± 32 nM. Further, the “In vitro mice feces stability - % Parent remaining at 6 h” value in series [3] was determined as 108%. Further, the “Delta Thermal melt” value in series [5] is 5.6 (1) ° C.
Regarding `CNC(=O)c1cccc(-c2ccc(O[C@H]3O[C@H](CO)[C@@H](O)[C@H](O)[C@@H]3F)c(C)c2)c1` [Example 6, 3-[4-[(2R,3S,4S,5S,6R)-3-fluoro-4,5-dihydroxy-6-(hydroxymethyl)tetrahydropyran-2-yl]oxy-3-methyl-phenyl]-N-methyl-benzamide], the IC50 in series [4] came out at 750 ± 141 nM. For the same compound, the “In vitro mice feces stability - % Parent remaining at 6 h” value in series [3] was found to be 108%. Also, the “Delta Thermal melt” value in series [5] is reported as 4.905 ± 0.195 (2) ° C.
Turning to `CNC(=O)c1cccc(-c2ccc(O[C@H]3O[C@H](CO)[C@@H](O)[C@H](O)[C@@H]3F)cc2)c1` [Example 7, 3-[4-[(2R,3S,4S,5S,6R)-3-fluoro-4,5-dihydroxy-6-(hydroxymethyl)tetrahydropyran-2-yl]oxyphenyl]-N-methyl-benzamide], the IC50 in series [4] amounted to 8620 ± 1300 nM. For the same compound, in series [5], the “Delta Thermal melt” value was 3.86 ± 0.09 (2) ° C.
For the compound `CNC(=O)c1cccc(-c2ccc(O[C@H]3O[C@H](CO)[C@@H](O)[C@H](O)[C@@H]3F)c(OC)c2)c1` [Example 8, 3-[4-[(2R,3S,4S,5S,6R)-3-fluoro-4,5-dihydroxy-6-(hydroxymethyl)tetrahydropyran-2-yl]oxy-3-methoxy-phenyl]-N-methyl-benzamide], the IC50 in series [4] is 5400 ± 200 nM. In addition, the “Delta Thermal melt” value in series [5] was 4 (1) ° C.
On to `COC(=O)c1cc(C(=O)OC)cc(-c2ccc(O[C@H]3O[C@H](CO)[C@@H](O)[C@H](O)[C@@H]3F)cc2)c1` [Example 9, Dimethyl 5-[4-[(2R,3S,4S,5S,6R)-3-fluoro-4,5-dihydroxy-6-(hydroxymethyl)tetrahydropyran-2-yl]oxyphenyl]benzene-1,3-dicarboxylate], for which the “Delta Thermal melt” value in series [5] was 4.39 ± 0.11 (2) ° C.
For the compound `Cc1cc(=O)oc2cc(O[C@H]3O[C@H](CO)[C@@H](O)[C@H](O)[C@@H]3F)ccc12` [Example 10, 7-[(2R,3S,4S,5S,6R)-3-fluoro-4,5-dihydroxy-6-(hydroxymethyl)tetrahydropyran-2-yl]oxy-4-methyl-chromen-2-one], the “Delta Thermal melt” value in series [5] is listed as 3.405 ± 0.105 (2) ° C.
For `CNC(=O)c1cccc(-c2ccc(O[C@H]3O[C@H](CO)[C@@H](O)[C@H](F)[C@@H]3O)cc2)c1` [Example 11, 4′-(((2R,3R,4S,5R,6R)-4-fluoro-3,5-dihydroxy-6-(hydroxymethyl)tetrahydro-2H-pyran-2-yl)oxy)-N-methyl-[1,1′-biphenyl]-3-carboxamide], the IC50 in series [4] came out at 14000 nM. The “Delta Thermal melt” value in series [5] is 2.6 (1) ° C.
For the compound `CNC(=O)c1cccc(-c2ccc(O[C@H]3O[C@H](CF)[C@@H](O)[C@H](O)[C@@H]3O)cc2)c1` [Example 12, 4′-(((2R,3S,4S,5S,6S)-6-(fluoromethyl)-3,4,5-trihydroxytetrahydro-2H-pyran-2-yl)oxy)-N-methyl-[1,1′-biphenyl]-3-carboxamide], the “In vitro mice feces stability - % Parent remaining at 6 h” value in series [3] is listed as 118%. Besides, in series [5], the “Delta Thermal melt” value is given as 0.06 ± 0.11 (2) ° C.
Take `CNC(=O)c1cccc(-c2ccc(O[C@H]3O[C@H](CO)[C@@H](O)[C@H](O)[C@]3(C)O)c(C)c2)c1` [Example 13, N,3′-dimethyl-4′-(((2R,3S,4S,5S,6R)-3,4,5-trihydroxy-6-(hydroxymethyl)-3-methyltetrahydro-2H-pyran-2-yl)oxy)-[1,1′-biphenyl]-3-carboxamide]: the IC50 in series [4] is 15 ± 2 nM. For the same compound, the “Delta Thermal melt” value in series [5] is reported as 10.71 ± 0 (2) ° C.

(Values after patent US9890176B2, “Mannose derivatives for treating bacterial infections” (Vertex Pharmaceuticals Incorporated, priority 2013, dated 2018).)
